ChEMBL document CHEMBL5303711, “ECBD screening data for assay EOS300108” (2023)
Counter-ions that a name gives are not always drawn. The source made the active and inactive calls. The rule behind the calls is not given here.

Assay: Cytotoxicity activity against human HepG2 cells assessed by CellTiter-Glo luminescent cell viability assay.
Format: toxicity, cell-based
Parameters: assay stage confirmatory assay, source tissue liver
Settings: HepG2 cells, read-out: IC50 relative

Row | Compound | CC50
1 | NS(=O)(=O)c1ccc(S(=O)(=O)Nc2cccc3c(Cl)c[nH]c23)cc1 | 13.6 µM (inactive)
2 | CCCN(CCC)CCNC(=O)Cn1cnc2onc(-c3ccc(Cl)cc3)c2c1=O | 5.9 µM (active)
3 | CCc1ccc2nc(N3CCC(C(=O)NCCN(CC)CC)CC3)sc2c1 | 3.1 µM (active)
4 | Fc1ccc(CNc2ncnc3ccc(F)cc23)cc1 | 4.3 µM (active)
5 | CC(C)Nc1cc(-c2c[nH]c(C(=O)N[C@H](CO)c3cccc(Cl)c3)c2)c(Cl)cn1 [ULIXERTINIB] | 1 µM (active)
6 | CCCc1cnc(NC(=O)CCc2nnc(-c3ccsc3)o2)s1 | 8.5 µM (active)
7 | CC1CCC(C(C)C)C(OC(=O)Cn2c(-c3ccc(Br)cc3)[n+](C)c3ccccc32)C1 (stereo unspecified) | 4.7 µM (active)
8 | COc1cc2c(Nc3ccc(NC(=O)c4ccccc4)cc3)ncnc2cc1OCCCN1CCOCC1 | 3.2 µM (active)
9 | CC(C)(C#N)c1ccc(N2C(=O)OCc3cnc4ccc(-c5cnc6ccccc6c5)cc4c32)cc1 | 7 µM (active)
10 | CC(C)C[C@H](NC(=O)[C@H](Cc1ccccc1)NC(=O)c1cnccn1)B(O)O [BORTEZOMIB] | < 0.1 µM (active)
11 | Cc1ccc(NC(=O)c2cccc(F)c2Cl)cc1O | 0.7 µM (active)
12 | O=C(c1c[nH]c(-c2ccccn2)c1)c1ccccc1O | 12.6 µM (inactive)
13 | Cc1ccc2c(NS(=O)(=O)c3ccccc3Cl)cccc2c1Oc1ncccc1-c1ccnc(N[C@H]2CCCNC2)n1 | 5.2 µM (active)
14 | Nc1ncnc2c1c(-c1cnc3[nH]ccc3c1)nn2C1CCCC1 | 1.6 µM (active)
15 | CN1CCc2nc(C(=O)c3nc4c(s3)CN(C)CC4)sc2C1 | 0.5 µM (active)
16 | Cn1c(=O)oc2cc(S(=O)(=O)Nc3cccc4cccnc34)ccc21 | 16.7 µM (active)
17 | CCn1c(=O)n(CC)c2cc(N3CCCC3)c(NC(=O)c3cccc(OC)c3)cc21 | 20.2 µM (inactive)
18 | COc1ccc2cc(S(=O)(=O)N[C@H](CC(=O)N[C@H](Cc3ccc(CN4[C@H](C)CCC[C@@H]4C)cc3)C(=O)N(C)C(C)C)c3ccc4c(c3)OCO4)ccc2c1 | 4.1 µM (active)
19 | CCOC(=O)CNS(=O)(=O)c1cc(-c2nnc(Nc3cccc(O)c3)c3ccccc23)ccc1C | 4.1 µM (active)
20 | O=[N+]([O-])c1ccc(O)c2ncccc12 [NITROXOLINE] | 12.4 µM (active)
21 | CCCC[C@H](CC)CNC1CCN(C(C)C)CC1 | 7.8 µM (inactive)
22 | O=c1[nH]ncc(NCc2ccc(OC[C@H]3CCCO3)cc2)c1Cl | 4.2 µM (inactive)
23 | Cc1cc(=O)n2nc(Sc3ncc4ccccn34)sc2n1 | 12.1 µM (active)

Row | Compound | CC50
24 | O=C(Cc1cnn(-c2ccccc2)c1)N1CCN(S(=O)(=O)c2ccc3c(c2)OCCCO3)CC1 | 8.6 µM (active)
25 | Cc1nc(-c2cccc(C(=O)N3CCN(Cc4noc(-c5ccc(F)cc5)n4)CC3)c2)no1 | 5.4 µM (active)
26 | CN(C)C/C=C/C(=O)Nc1ccc(C(=O)N2CCC[C@@H](Nc3ncc(Cl)c(-c4c[nH]c5ccccc45)n3)C2)cc1 | 0.1 µM (active)
27 | CC(C)c1cc(-c2n[nH]c(=O)n2-c2ccc3c(ccn3C)c2)c(O)cc1O [GANETESPIB] | < 0.1 µM (active)
28 | NC(=O)c1cnc(NC(=O)c2cccc(S(=O)(=O)N3CCN(c4ccccc4)CC3)c2)s1 | 37.1 µM (inactive)
29 | Cc1nccn1-c1ccc(NC(=O)c2cccc(OC(C)C)n2)cn1 | 6.5 µM (active)
30 | Cc1cc(NCCCN2CCC(C)CC2)c2ccccc2n1 | 6.5 µM (active)
31 | Clc1cccc2[nH]nc(Br)c12 | 8.8 µM (active)
32 | Cc1ccccc1-c1nc(C#N)c(NCC(C)N2CCN(C)CC2)o1 (stereo unspecified) | 10.8 µM (active)
33 | Nc1nccc(-n2nnc3ccccc32)n1 | 8.7 µM (active)
34 | CCOc1cc(C(=O)N[C@H]2CCN(C3CCN(C)CC3)C2)ccc1C | 15.9 µM (inactive)
35 | CCCOc1cc(OCCCCN(C)C)cc(Oc2cc3c(cc2NS(=O)(=O)c2ccc(OC)c(OC)c2)n(C)c(=O)n3C)c1 | 7.8 µM (active)
36 | CC[C@@]1(O)C(=O)OCc2c1cc1n(c2=O)Cc2cc3ccccc3nc2-1 [CAMPTOTHECIN] | 0.2 µM (active)
37 | CCN(CC)C(=O)N1CC(Oc2ccc(-c3noc(C4CCOCC4)n3)cc2)C1 | 2.3 µM (active)
38 | COc1ccc(N(C(=O)Oc2c(C)cccc2C)c2ccnc(Nc3ccc(N4CCN(C)CC4)cc3)n2)c(OC)c1 | 3.3 µM (active)
39 | O=C(CCCCCCNC(=O)c1cnc(N(c2ccccc2)c2ccccc2Cl)nc1)NO [CITARINOSTAT] | 3 µM (active)
40 | Cn1cc(C2=C(c3cn(CCCSC(=N)N)c4ccccc34)C(=O)NC2=O)c2ccccc21 | 1.4 µM (active)
41 | Cc1ccc2nc(NCCN)c3ncc(C)n3c2c1 | 1.9 µM (active)
42 | Cc1nc(NC(=O)c2cc(Br)cn2C)sc1C | 1 µM (active)
43 | Cc1nc(-c2ccccn2)sc1C(=O)Nc1ccccc1O | 2.8 µM (active)
44 | OCCN1CCN(CCCN2c3ccccc3Sc3ccc(Cl)cc32)CC1 [PERPHENAZINE] | 3.4 µM (active)
45 | CN(C)CCNC(=O)Cn1c(-c2ccccc2)nn(-c2ccc(Cl)cc2)c1=O | 6.5 µM (active)
46 | Cc1ccc(NC(=O)Nc2ccc3c(c2)N(S(C)(=O)=O)CC3)cc1C | 16.8 µM (inactive)

Row | Compound | CC50
47 | Cn1cc(S(=O)(=O)N2CCCC2)cc1C(=O)Nc1nc(-c2ccccn2)cs1 | 6.4 µM (inactive)
48 | CCOc1ccc(C(=O)Nc2nc3ccc(S(=O)(=O)N(C)C)cc3s2)cc1 | 19.3 µM (inactive)
49 | O=C1NCCN1CCN1CCC(c2cn(-c3ccc(F)cc3)c3ccc(Cl)cc23)CC1 [SERTINDOLE] | 2.7 µM (active)
50 | NC(=O)c1coc(-c2csc(-c3ccccc3O)n2)c1 | 2.5 µM (active)
51 | CCN1CCN(c2cc3c(cc2S(=O)(=O)N2CCCCCC2)C(=O)Nc2ccccc2O3)CC1 | 10.9 µM (active)
52 | CN(C)[C@@H](CCOc1cccc2ccccc12)c1ccccc1 [DAPOXETINE HYDROCHLORIDE] | 6.3 µM (active)
53 | COc1ccc([N+](=O)[O-])c(S(=O)(=O)c2ccc(Cl)cc2)n1 | 2.2 µM (active)
54 | Cc1ccc(NC(=O)c2nc(S(C)(=O)=O)ncc2Br)cc1 | 2.7 µM (active)
55 | COc1ccc2[nH]c(NC(=O)[C@@H]3CCCC(=O)N3)cc2c1 | 4.6 µM (active)
56 | COc1cc2nc(N3CCN(C(=O)c4ccco4)CC3)nc(N)c2cc1OC [PRAZOSIN HYDROCHLORIDE] | 6.6 µM (active)
57 | NC(=S)N/N=C/c1ncccc1N [TRIAPINE] | 5.3 µM (active)
58 | CCCN1CCN(CCCNC(=O)C2CCN(c3nc(-c4ccc(OC)cc4)no3)CC2)CC1 | 13 µM (active)
59 | CCn1c(=O)c2sc(N3CCCC3)nc2n(CC(=O)Nc2ccc(OC)cc2)c1=O | 31.4 µM (inactive)
60 | CCN(CC)C(=O)CN1CCN(S(=O)(=O)c2ccc3c(c2)CCC3)CC1 | 50 µM (inactive)
61 | CCCOc1cc(S(=O)(=O)Nc2cccc(O)c2)ccc1Cl | 12 µM (active)
62 | Oc1c(Cl)cc(Cl)c(Cl)c1Cc1c(O)c(Cl)cc(Cl)c1Cl [HEXACHLOROPHENE] | 5.2 µM (active)
63 | Cc1oc(-c2ccccc2)nc1C(=O)Nc1ncccc1O | 9.6 µM (inactive)
64 | Cc1cccc2c3c(ccc12)C1=C(C(=O)C3=O)[C@@H](C)CO1 [DIHYDROTANSHINONE I] | 1.8 µM (active)
65 | CCc1cncnc1N1CCN(Cc2nc3cc(C(F)(F)F)ccc3[nH]2)CC1 | 9.5 µM (active)
66 | CCOc1ccc(OCC)c(NC(=O)c2ccc(N3CCN(C(C)C)CC3)cc2)c1 | 9.8 µM (active)
67 | Cc1ccc(S(=O)(=O)/N=C2\C=C(Sc3nc[nH]n3)C(=O)c3ccccc32)cc1 | 4.8 µM (active)
68 | CC[C@H]1c2ccsc2CCN1C(=O)c1cc(OC)cc(OC)c1 | 13 µM (active)
69 | COc1cc(-c2cc(C)no2)ccc1S(=O)(=O)Nc1cc(OC)c(OC)c(OC)c1 | 4.5 µM (active)

Row | Compound | CC50
70 | COCCN1CCN(Cc2ccc(-c3n[nH]c4c3C(=O)c3c(NC(=O)NN5CCOCC5)cccc3-4)cc2)CC1 [RGB-286638] | 0.2 µM (active)
71 | c1ccc(COc2ccc3c(c2)CCNCC3)cc1 | 10.8 µM (active)
72 | CC1=CCN(C[C@H](O)COc2ccc3c(c2)OCO3)CC1 | 13.5 µM (inactive)
73 | COCCNc1ncnc2scc(-c3ccccc3)c12 | 8.6 µM (active)
74 | O=C(NCCN1CCCC1)C1CCN(c2ncccc2-c2nc(-c3ccccc3)no2)CC1 | 7.9 µM (active)
75 | C=C(C)[C@H]1Cc2c(ccc3c2O[C@@H]2COc4cc(OC)c(OC)cc4[C@@H]2C3=O)O1 [ROTENONE] | 0.5 µM (active)
76 | CN1CCN(Cc2ccc(NC(=O)c3n[nH]cc3Nc3ncnc4[nH]ccc34)cc2)CC1 | 1.1 µM (active)
77 | NC(=O)C(c1ccccc1)(c1ccccc1)[C@@H]1CCN(CCc2ccc3c(c2)CCO3)C1 [DARIFENACIN HYDROBROMIDE] | 11.1 µM (active)
78 | O=C(Nc1cnccc1Cl)N1CCN(Cc2ccc3c(c2)OC(F)(F)O3)CC1 [JNJ-42165279] | 11.9 µM (inactive)
79 | CCn1c(=O)c(C)nc2cc(C(=O)N3CCN(Cc4ccc(OC)cc4)CC3)ccc21 | 7.3 µM (active)
80 | Cc1csc(-c2nnc(Nc3ccc(Oc4ncccc4-c4ccnc(N)n4)cc3)c3ccccc23)c1 [AMG-900] | 25.4 µM (inactive)
81 | NCCNS(=O)(=O)c1cccc2cnccc12 | 13.2 µM (inactive)
82 | OC(c1ccccc1)C(CN1CCCC1)c1ccccc1 (stereo unspecified) | 8.8 µM (active)
83 | COc1nc(OCc2cccc(-c3ccccc3)c2C)ccc1CNCCNC(C)=O | 4 µM (active)
84 | C[C@@H]1COCCN1c1cc(=O)n2c(n1)N(Cc1cncc(Cl)c1)[C@H](C(F)(F)F)CC2 | 14.5 µM (inactive)
85 | c1coc(CNc2ncnc3ccccc23)c1 | 9.5 µM (inactive)
86 | Nc1nc(N)c2c(OCC3CCN(Cc4c(Cl)cccc4Cl)CC3)cccc2n1 | 4 µM (active)
87 | C[C@@H]1Oc2ccccc2N(CC(=O)Nc2nc(-c3ccccn3)cs2)C1=O | 3.3 µM (active)
88 | CNC(=O)c1nn(C)c2c1C(C)(C)Cc1cnc(Nc3ccc(N4CCN(C)CC4)cc3)nc1-2 [MILCICLIB] | 0.9 µM (active)
89 | Cc1nc(CCN[C@@H](C)c2ccc(S(N)(=O)=O)cc2)cs1 | 2.7 µM (active)
90 | CCCC(=O)Nc1ccc(Nc2nc(C)cc(N3CCCC3)n2)cc1 | 5.7 µM (active)
91 | CCCS(=O)(=O)N1CCc2ccc(NC(=O)Nc3ccc(SC)cc3)cc21 | 18.2 µM (inactive)
